Assay results as given in PubChem BioAssay (NCI).
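Cells were grown in 96-well plates and exposed to each compound for 48 hours at five concentrations; endpoints were interpolated linearly between bracketing concentrations, or set to the highest concentration if not reached. TGI marks complete inhibition of growth.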

Experiments:
Assay in all cases: NCI-60 cell line screen, 48 h
A549 NSCLC = system: A549 NSCLC
ACHN renal = system: ACHN renal
CAKI-1 renal = system: CAKI-1 renal
CCRF-CEM leukemia = system: CCRF-CEM leukemia
COLO 205 colon = system: COLO 205 colon
DU-145 prostate = system: DU-145 prostate
HCC-2998 colon = system: HCC-2998 colon
HCT-116 colon = system: HCT-116 colon
HCT-15 colon = system: HCT-15 colon
HOP-62 NSCLC = system: HOP-62 NSCLC
HOP-92 NSCLC = system: HOP-92 NSCLC
HS 578T breast = system: HS 578T breast
HT29 colon = system: HT29 colon
IGROV1 ovarian = system: IGROV1 ovarian
K-562 leukemia = system: K-562 leukemia
LOX IMVI melanoma = system: LOX IMVI melanoma
M14 melanoma = system: M14 melanoma
MCF7 breast = system: MCF7 breast
MDA-MB-231 breast = system: MDA-MB-231 breast
MDA-MB-435 = system: MDA-MB-435
MDA-N = system: MDA-N
MOLT-4 leukemia = system: MOLT-4 leukemia
NCI-H226 lung = system: NCI-H226 lung
NCI-H23 lung = system: NCI-H23 lung
NCI-H460 lung = system: NCI-H460 lung
NCI-H522 lung = system: NCI-H522 lung
NCI/ADR-RES ovarian = system: NCI/ADR-RES ovarian
OVCAR-3 ovarian = system: OVCAR-3 ovarian
OVCAR-4 ovarian = system: OVCAR-4 ovarian
OVCAR-5 ovarian = system: OVCAR-5 ovarian
OVCAR-8 ovarian = system: OVCAR-8 ovarian
PC-3 prostate = system: PC-3 prostate
RPMI-8226 leukemia = system: RPMI-8226 leukemia
SF-295 CNS = system: SF-295 CNS
SK-MEL-2 melanoma = system: SK-MEL-2 melanoma
SK-MEL-28 melanoma = system: SK-MEL-28 melanoma
SK-MEL-5 melanoma = system: SK-MEL-5 melanoma
SK-OV-3 ovarian = system: SK-OV-3 ovarian
SN12C renal = system: SN12C renal
SNB-19 CNS = system: SNB-19 CNS
SNB-75 CNS = system: SNB-75 CNS
SR leukemia = system: SR leukemia
SW-620 colon = system: SW-620 colon
T-47D breast = system: T-47D breast
TK-10 renal = system: TK-10 renal
U251 CNS = system: U251 CNS
UACC-257 melanoma = system: UACC-257 melanoma
UO-31 renal = system: UO-31 renal
786-0 renal = system: 786-0 renal
A498 renal = system: A498 renal
BT-549 breast = system: BT-549 breast
EKVX NSCLC = system: EKVX NSCLC
HL-60(TB) leukemia = system: HL-60(TB) leukemia
KM12 colon = system: KM12 colon
MALME-3M melanoma = system: MALME-3M melanoma
SF-268 CNS = system: SF-268 CNS

Measured: TGI

CN1C[C@H]2[C@@H](C1=O)[C@H](c1ccccc1)ON2C
not listed: 786-0 renal | A498 renal | BT-549 breast | EKVX NSCLC | HL-60(TB) leukemia | KM12 colon | MALME-3M melanoma | SF-268 CNS
> 100 µM: all other assays above

O=C(O)CCNC(=O)c1cc(N(CCBr)CCBr)c([N+](=O)[O-])cc1[N+](=O)[O-]
not listed: DU-145 prostate | T-47D breast
> 100 µM: all other assays above
